# Test results published in US20250092014A1, “COMPOUNDS AND METHODS OF ACTIVATING LIPOPROTEIN LIPASE” (Metrea Biosciences, Inc., priority 2021, published 2025).
# pEC50: −log10 of the molar value. Structures can show the parent of a compound that is named as a salt.
# How the values were obtained:
# [1] = target: T1, LPL (native bovine milk protein) inactivated by ANGPTL4 (Bos taurus, UniProt P11151); assay: LPL ANGPTL4 protection assay (LPL fluorescence assay, resorufin butyrate substrate); assay type: biochemical; settings: LPL activation activity, LPL 2.5 nM, ANGPTL4 20 nM
# T1 construct: from tissue; host or cells: bovine milk (LPL); E. coli (GST-ANGPTL4)
# T1 sequence (P11151 29-478): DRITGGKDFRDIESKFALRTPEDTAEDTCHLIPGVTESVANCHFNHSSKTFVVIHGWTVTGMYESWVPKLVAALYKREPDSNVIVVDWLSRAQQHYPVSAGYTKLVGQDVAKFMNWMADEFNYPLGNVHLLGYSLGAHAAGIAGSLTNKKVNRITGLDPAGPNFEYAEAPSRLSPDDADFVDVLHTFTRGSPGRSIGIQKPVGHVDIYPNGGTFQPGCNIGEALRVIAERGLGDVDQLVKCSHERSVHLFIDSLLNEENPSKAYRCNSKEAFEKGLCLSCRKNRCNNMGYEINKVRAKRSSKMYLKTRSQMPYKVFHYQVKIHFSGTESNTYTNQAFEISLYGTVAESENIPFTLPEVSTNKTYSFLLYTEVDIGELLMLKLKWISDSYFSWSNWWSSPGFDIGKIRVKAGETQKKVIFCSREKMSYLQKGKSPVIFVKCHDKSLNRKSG
# Description: LPL is inactivated by angiopoietin-like 4 (ANGPTL4). Compounds of the present disclosure were for activity using the following protection assay. Briefly, the assay was performed in a black opaque 96-well microtiter plate with final volume of 100 μL using a buffer consisting of 50 mM HEPES (pH 7.2), 150 mM NaCl and 0.03% Triton X-100. Compounds were prepared as 10 mM stocks in DMSO, with subsequent serial dilutions performed in DMSO. Two microliters of test compounds were added to the microtiter plate, followed by 49-PL of LPL (native bovine milk protein affinity purified using heparin-affinity chromatography) in assay buffer. The plate contents were mixed using an orbital shaker and allowed to incubate for 5 minutes at room temperature. The enzymatic assay was initiated by the addition of a mixture of 49 μL of 50 μM resorufin butyrate (Santa Cruz #sc-208302; prepared from a 10 mM DMSO stock) and ANGPTL4 (N-terminal GST construct consisting of residues 26-164 expressed in E. coli) in assay buffer. The final concentrations of LPL and ANGPTL4 were 2.5 nM and 20 nM, respectively. The assay was allowed to proceed at 30° C. for 25 minutes with kinetic monitoring (Ex560/Em585) followed by an endpoint reading which was used for analysis.
# Data was analyzed in Graphpad Prism (version 6.0, GraphPad Software, Inc., San Diego, CA) using a variable slope four parameter fit of the equation:
# Y=Bottom+(Top-Bottom)/(1+10^((Log EC50−X)*HillSlope)),
# where X is the concentration of test compound, Y corresponds to the amount of product expressed in relative fluorescence units, and Top and Bottom refer to the plateaus of the curve. Percent activation (protection) of test compound was calculated relative to zero effect wells (ZEW; LPL, ANGPTL4 and substrate) and maximum effect wells (MEW; LPL plus substrate): ((test well−ZEW)/(MEW−ZEW))*100.
# LPL:sGPIHBP1 complex = target: T2, LPL:sGPIHBP1 complex (Homo sapiens, UniProt P06858); assay: RB assay (LPL:sGPIHBP1 pre-incubated with ANGPTL4, RB substrate); assay type: biochemical; settings: read-out: RB qAC50
# T2 sequence (P06858 28-475): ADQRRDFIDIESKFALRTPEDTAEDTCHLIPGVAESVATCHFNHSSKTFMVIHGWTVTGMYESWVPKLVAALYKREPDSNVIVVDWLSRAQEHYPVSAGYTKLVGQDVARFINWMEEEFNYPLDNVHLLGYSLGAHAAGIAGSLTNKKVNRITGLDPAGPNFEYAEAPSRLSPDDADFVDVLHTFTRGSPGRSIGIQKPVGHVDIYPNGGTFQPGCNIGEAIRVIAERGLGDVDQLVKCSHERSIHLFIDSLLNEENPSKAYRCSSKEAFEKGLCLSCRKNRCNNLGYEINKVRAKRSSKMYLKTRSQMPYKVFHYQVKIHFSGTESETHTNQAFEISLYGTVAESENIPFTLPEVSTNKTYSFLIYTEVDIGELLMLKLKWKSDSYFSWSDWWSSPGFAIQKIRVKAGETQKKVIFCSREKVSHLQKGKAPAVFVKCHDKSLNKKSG
# T2 sequence (Q8IV16 21-151 partner limits assumed): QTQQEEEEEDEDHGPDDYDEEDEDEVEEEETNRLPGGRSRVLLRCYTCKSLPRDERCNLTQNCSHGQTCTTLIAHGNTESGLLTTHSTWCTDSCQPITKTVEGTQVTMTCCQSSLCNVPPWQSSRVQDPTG
# Description: The assay was performed in black 1536-well plates using purified proteins. To identify compounds that stimulate LPL activity either by directly activating LPL or by inhibiting the antagonist ANGPTL4, the LPL:sGPIHBP1 complex was pre-incubated with ANGPTL4 to decrease LPL activity by 80%. After a 60 min pre-incubation, the reaction was started by adding the RB substrate. 30 min after RB addition, the enzymatic reaction was stopped using SDS. Fluorescence intensity was measured 2 h after stopping the reaction.
# 20 or 40 nl of compound solution in 100% DMSO were placed in test plate. Then was added LPL:sGPIHBP1 to all wells (diluted in assay buffer to 5 nM; 2 μl/well). This was followed by an addition of ANGPTL4 to compounds and neutral controls (diluted in assay buffer to 20 nM; 1 μl/well). A buffer solution was added to the stimulator control (1 μl/well). The plates were then centrifuged and pre-incubated for 60 min at RT. The reaction was started by adding substrate to all wells (diluted in assay buffer to 40 μM, 1 μl/well). The plated were centrifuged (800 rpm for 1 min) and incubated 30 min at RT (=reaction time). The reaction was stopped by adding SDS to all wells (diluted in water to 2.5%, 2 μl/well); incubated 2 h at RT. The fluorescence intensity (ex 540 nm/em 590 nm) was measured on a Pherastar (BMG) using 5 flashes.
SMILES,pEC50 [1],pEC50 (LPL:sGPIHBP1 complex)
"CC(C)n1nc(C(=O)Nc2cc(C(=O)Nc3ccc(F)cc3CC(=O)O)ccc2N2CCCCC2)c2ccccc21 [Compound 162, 2-(5-fluoro-2-(3-(1-isopropyl-1H-indazole-3-carboxamido)-4-(piperidin-1-yl)benzamido)phenyl)acetic acid]",5.49,
"CCn1nc(C(=O)Nc2cc(C(=O)Nc3ccc(F)cc3CC(=O)O)ccc2N2CCCCC2)c2ccccc21 [Compound 160, 2-(2-(3-(1-ethyl-1H-indazole-3-carboxamido)-4-(piperidin-1-yl)benzamido)-5-fluorophenyl)acetic acid]",5.78,
"O=C(O)Cc1cc(F)ccc1NC(=O)c1ccc(N2CCCCC2)c(NC(=O)c2nn(CC3CCOC3)c3ccccc23)c1 (stereo not drawn) [Compound 118, 2-(5-fluoro-2-(4-(piperidin-1-yl)-3-(1-((tetrahydrofuran-3-yl)methyl)-1H-indazole-3-carboxamido)benzamido)phenyl)acetic acid]",,< 5.15
"O=C(O)Cc1cc(F)ccc1NC(=O)c1ccc(N2CCCCC2)c(NC(=O)c2nn(CC(F)F)c3ccccc23)c1 [Compound 96, 2-(2-(3-(1-(2,2-difluoroethyl)-1H-indazole-3-carboxamido)-4-(piperidin-1-yl)benzamido)-5-fluorophenyl)acetic acid]",,5.33
"O=C(O)Cc1cc(F)ccc1NC(=O)c1ccc(N2CCCCC2)c(NC(=O)c2nn(CC3CCOCC3)c3ccccc23)c1 [Compound 104, 2-(5-fluoro-2-(4-(piperidin-1-yl)-3-(1-((tetrahydro-2H-pyran-4-yl)methyl)-1H-indazole-3-carboxamido)benzamido)phenyl)acetic acid]",,5.49
O=C(O)Cc1cc(F)ccc1NC(=O)c1ccc(N2CCCCC2=O)c(NC(=O)c2nn(CC(F)(F)F)c3ccccc23)c1 [Example 59],,< 4.60
"COCCn1nc(C(=O)Nc2cc(C(=O)Nc3ccc(F)cc3CC(=O)O)ccc2N2CCCCC2)c2ccccc21 [Compound 105, 2-(5-fluoro-2-(3-(1-(2-methoxyethyl)-1H-indazole-3-carboxamido)-4-(piperidin-1-yl)benzamido)phenyl)acetic acid]",,4.85
NC(=O)C1CCCCN1c1ccc(C(=O)Nc2ccc(F)cc2CC(=O)O)cc1NC(=O)c1nn(CC(F)(F)F)c2ccccc12 (stereo not drawn) [Example 71],,< 5.15
CC1CCCC(C)N1c1ccc(C(=O)Nc2ccc(F)cc2CC(=O)O)cc1NC(=O)c1nn(CC(F)(F)F)c2ccccc12 (stereo not drawn) [Example 68],,< 5.15
"O=C(O)Cc1cc(F)ccc1NC(=O)c1ccc(N2CCCCC2)c(NC(=O)c2c3ccccc3nn2CC(F)(F)F)c1 [Compound 135, 2-(5-fluoro-2-(4-(piperidin-1-yl)-3-(2-(2,2,2-trifluoroethyl)-2H-indazole-3-carboxamido)benzamido)phenyl)acetic acid hydrochloride]",,4.92
"NCCn1nc(C(=O)Nc2cc(C(=O)Nc3ccc(F)cc3CC(=O)O)ccc2N2CCCCC2)c2ccccc21 [Compound 100, 2-(2-(3-(1-(2-aminoethyl)-1H-indazole-3-carboxamido)-4-(piperidin-1-yl)benzamido)-5-fluorophenyl)acetic acid]",,< 4.60
O=C(O)Cc1cc(F)ccc1NC(=O)c1ccc(N2CCCC(F)(F)C2)c(NC(=O)c2nn(CC(F)(F)F)c3ccccc23)c1 [Example 62],,< 5.15
"O=C(O)Cc1cc(F)ccc1NC(=O)c1ccc(N2CCCCC2)c(NC(=O)c2nn(CC(F)(F)F)c3ccncc23)c1 [Compound 107, 2-(5-fluoro-2-(4-(piperidin-1-yl)-3-(1-(2,2,2-trifluoroethyl)-1H-pyrazolo[4,3-c]pyridine-3-carboxamido)benzamido)phenyl)acetic acid]",,< 5.15
"O=C(O)Cc1cc(F)ccc1NC(=O)c1ccc(N2CCCCC2)c(NC(=O)c2nn(CC(F)(F)F)c3c2CCC3)c1 [Compound 145, 2-(5-fluoro-2-(4-(piperidin-1-yl)-3-(1-(2,2,2-trifluoroethyl)-1,4,5,6-tetrahydrocyclopenta[c]pyrazole-3-carboxamido)benzamido)phenyl)acetic acid]",,4.82
"O=C(O)Cc1cc(F)ccc1NC(=O)c1cc(NC(=O)c2nn(CC(F)(F)F)c3ccccc23)c(N2CCCCC2)cn1 [Compound 43, 2-(5-fluoro-2-(5-(piperidin-1-yl)-4-(1-(2,2,2-trifluoroethyl)-1H-indazole-3-carboxamido)picolinamido)phenyl)acetic acid]",,< 5.15
"Cc1cc(N2CCCCC2)c(NC(=O)c2nn(CC(F)(F)F)c3ccccc23)cc1C(=O)Nc1ccc(F)cc1CC(=O)O [Compound 55, 2-(5-fluoro-2-(2-methyl-4-(piperidin-1-yl)-5-(1-(2,2,2-trifluoroethyl)-1H-indazole-3-carboxamido)benzamido)phenyl)acetic acid]",,5.30
O=C(O)Cc1cc(F)ccc1NC(=O)c1ccc(N2CC3CC3C2)c(NC(=O)c2nn(CC(F)(F)F)c3ccccc23)c1 (stereo not drawn) [Example 52],,5.30
"Cc1cccc2c1c(C(=O)Nc1cc(C(=O)Nc3ccc(F)cc3CC(=O)O)ccc1N1CCCCC1)nn2CC(F)(F)F [Compound 141, 2-(5-fluoro-2-(3-(4-methyl-1-(2,2,2-trifluoroethyl)-1H-indazole-3-carboxamido)-4-(piperidin-1-yl)benzamido)phenyl)acetic acid]",,< 4.60
"O=C(O)Cc1c(F)cccc1NC(=O)c1ccc(N2CCCCC2)c(NC(=O)c2nn(CC(F)(F)F)c3ccccc23)c1 [Compound 37, 2-(2-fluoro-6-(4-(piperidin-1-yl)-3-(1-(2,2,2-trifluoroethyl)-1H-indazole-3-carboxamido)benzamido)phenyl)acetic acid]",,5.30
"O=C(O)Cc1cc(Cl)ccc1NC(=O)c1ccc(N2CCCCC2)c(NC(=O)c2nn(CC(F)(F)F)c3ccccc23)c1 [Compound 23, 2-(5-chloro-2-(4-(piperidin-1-yl)-3-(1-(2,2,2-trifluoroethyl)-1H-indazole-3-carboxamido)benzamido)phenyl)acetic acid]",,5.34
"O=C(O)Cc1cc(F)ccc1NC(=O)c1ccc(N2CCCCC2)c(NC(=O)c2nn(CC3CCCO3)c3ccccc23)c1 (stereo not drawn) [Compound 119, 2-(5-fluoro-2-(4-(piperidin-1-yl)-3-(1-((tetrahydrofuran-2-yl)methyl)-1H-indazole-3-carboxamido)benzamido)phenyl)acetic acid]",,5.18
